Counter-ions that a name gives are not always drawn.
Legend:
Type in all cases: in vivo
mice = assay: Acute toxicity, LD50 lethal dose after oral administration to mice; details: orally
Procedure: (§1) (3) Determination of the acute toxicity
(§2) The LD50 lethal dose of the derivatives of Examples 1 to 9 after administration orally to mice was evaluated.

[1] = as above; details: mouse, in vivo, po, orally
Procedure: as §1, §2

gastric fluid = assay: Anti-ulcer activity, SHAY technique as modified by P. H. Guth (pylorus ligature plus aspirin), pH of the gastric fluid; details: rats, orally, aspirin 200 mg/kg
Procedure: (2) Determination of the anti-ulcer activity of the compounds of Examples 7 and 8
The technique used is described by SHAY et al in Gastroenterology, 5, 43 (1945) as modified by P. H. Guth in Gastroenterology, 76, 88 (1976).
After 48 hours fast, rats receive the dispersant or the substance to be studied orally in a volume of 1 cc/100 g.
(§3) One hour later the animals are anesthetized with ether. A longitudinal incision is made about 1 cm below the sternum, the glandular part of the stomach and the duodenum are exposed and a ligature is placed a few millimeters below the pylorus. The muscular layer is sutured and the skin is clipped.
An hour later, 200 mg/kg of aspirin dispersed in a 1% suspension of methyl cellulose in water to which 150 millimoles of hydrochloric acid have been added are administered orally in a volume of 0.5 cc/100 g.
Two hours after this last administration, the animals are sacrificed by means of carbon dioxide.
Before removing the stomach, a ligature is placed above the cardia.
The gastric fluid is collected in order to measure its pH for the treated animals and the control animals.

[2] = system: ulcers in rats at the level of the stomach; assay: Anti-ulcer activity, SHAY technique (ligating of the pylorus); details: by mouth, about 16 hours after treatment
Source text: (1) Determination of the anti-ulcer activity of the compounds of Examples 1 to 4
The technique used is described by SHAY et al in Gastroenterology, 5, 43, (1945).
SHAY'S technique consists in inducing ulcers in rats at the level of the stomach by ligating of the pylorus.
as §3, with “The” for “One hour later the”, “portion” for “part”, “applied” for “placed”, “left as is” for “sutured”, “sutured by two clips.” for “clipped.”
The animals immediately receive the dispersant or the substance to be studied by mouth in a volume of 0.5 cc per hundred grams and are kept without food or drink until sacrificed by carotic venesection, effected about 16 hours after the treatment.
Before removing the stomach, a ligature is placed around the cardia.
The gastric fluid is collected in order to measure the pH thereof.
The stomach is then opened along the greater curvature, rinsed in physiological serum and spread out on millimeter paper in order to be examined under a binocular lens.
The seriousness of the lesions is evaluated macroscopically, being rated from 0 to 4 for each stomach.
For each lot of rats the average intensity of the ulcerations is determined and the protection calculated by referring the average index of the group to the average index of the control group.
The pH values of the gastric liquid are also determined for the treated animals and the control animals.

For `COc1cc(C(=O)/C=C/C(=O)O)cc(OC)c1OC` [Example 9, Piperidine salt of (E)-4-(3,4,5-trimethoxyphenyl)-4-oxo-2-butenoic acid], which LD50 (mice) is on record?
The LD50 was > 400 mg/kg.

For `COc1cc(OC)c(C(=O)/C=C/C(=O)O)c(OC)c1` [Example 5, (E)-4-(2,4,6-trimethoxyphenyl)-4-oxo-2-butenoic acid], which LD50 [1] is on record?
Its LD50 is 200 mg/kg.

With `COc1cc(C(=O)/C=C/C(=O)O)cc(OC)c1OC` [Example 8, Sodium salt of (E)-4-(3,4,5-trimethoxyphenyl)-4-oxo-2-butenoic acid] as the compound, how does the “pH of the Gastric Fluid, Treated Animals” value (gastric fluid; 0.8 mg/kg) read?
The value was 2.3.

What about the “pH of the Gastric Fluid, Treated Animals” value (gastric fluid; 4 mg/kg) of the same compound?
Its value is 2.2.

What about the “pH of the Gastric Fluid, Treated Animals” value (gastric fluid; 20 mg/kg) of the same compound?
The value was 3.

And the “pH of the Gastric Fluid, Treated Animals” value (gastric fluid; 100 mg/kg)?
The value was 4.6.

And the LD50 (mice)?
The LD50 was > 400 mg/kg.

Which “pH of the Gastric Fluid, Treated Animals” value (gastric fluid; 4 mg/kg) does the source give for `COc1cc(C(=O)/C=C/C(=O)O)cc(OC)c1OC` [Example 7, Morpholine salt of (E) 4-(3,4,5-trimethoxyphenyl)-4-oxo-2-butenoic acid] here?
The value was 2.

And the “pH of the Gastric Fluid, Treated Animals” value (gastric fluid; 20 mg/kg)?
The value was 2.4.

What about the “pH of the Gastric Fluid, Treated Animals” value (gastric fluid; 100 mg/kg) of the same compound?
Its value is 4.1.

What about the LD50 (mice) of the same compound?
The LD50 was > 400 mg/kg.

Which “Ulcerization % Protection As Compared with the Controls” value ([2]; 0.8 mg/kg) does the source give for `COc1cc(C(=O)/C=C/C(=O)O)cc(OC)c1OC` [Example 4, (E)-4-(3,4,5-trimethoxyphenyl)-4-oxo-2-butenoic acid] here?
The value was 38%.

And the “pH of the Gastric Fluid, Treated Animals” value ([2]; 0.8 mg/kg)?
Its value is 1.8.

What about the “Ulcerization % Protection As Compared with the Controls” value ([2]; 4 mg/kg) of the same compound?
The value was 65%.

And the “pH of the Gastric Fluid, Treated Animals” value ([2]; 4 mg/kg)?
Its value is 3.0.

What about the “Ulcerization % Protection As Compared with the Controls” value ([2]; 20 mg/kg) of the same compound?
Its value is 98%.

What about the “pH of the Gastric Fluid, Treated Animals” value ([2]; 20 mg/kg) of the same compound?
Its value is 2.4.

What about the LD50 [1] of the same compound?
The LD50 was 600 mg/kg.

Which “Ulcerization % Protection As Compared with the Controls” value ([2]; 100 mg/kg) does the source give for `COc1cc(C(=O)CC(O)C(=O)O)cc(OC)c1OC` (centres unmarked) [Example 3, 4-(3,4,5-trimethoxyphenyl)-4-oxo-2-hydroxy butanoic acid] here?
Its value is 45%.

And the “pH of the Gastric Fluid, Treated Animals” value ([2]; 100 mg/kg)?
The value was 3.7.

What about the LD50 [1] of the same compound?
The LD50 was 1000 mg/kg.

For `COc1cc(OC)c(C(=O)CC(O)C(=O)O)cc1OC` (centres unmarked) [Example 1, 4-(2,4,5-trimethoxyphenyl)-4-oxo-2-hydroxy butanoic acid], which “Ulcerization % Protection As Compared with the Controls” value ([2]; 100 mg/kg) is on record?
Its value is 43%.

And the “pH of the Gastric Fluid, Treated Animals” value ([2]; 100 mg/kg)?
The value was 2.5.

And the LD50 [1]?
The LD50 was 1000 mg/kg.

With `COc1cc(OC)c(C(=O)/C=C/C(=O)O)cc1OC` [Example 2, (E) 4-(2,4,5-trimethoxyphenyl)-4-oxo-2-butenoic acid] as the compound, how does the “Ulcerization % Protection As Compared with the Controls” value ([2]; 4 mg/kg) read?
Its value is 72%.

What about the “pH of the Gastric Fluid, Treated Animals” value ([2]; 4 mg/kg) of the same compound?
The value was 3.6.

And the “Ulcerization % Protection As Compared with the Controls” value ([2]; 20 mg/kg)?
Its value is 100%.

What about the “pH of the Gastric Fluid, Treated Animals” value ([2]; 20 mg/kg) of the same compound?
The value was 4.6.

And the LD50 [1]?
Its LD50 is 600 mg/kg.

— US4450292A, “Derivatives of phenyl aliphatic carboxylic acids, and use thereof in treating gastric and gastro-duodenal ailments” (Roussel Uclaf, priority 1981, dated 1984)
